Drawing on patent publication US20130217664A1, “NOVEL COMPOUNDS USEFUL FOR THE TREATMENT OF DEGENERATIVE AND INFLAMMATORY DISEASES” (priority 2012, published 2013), this text covers IC50 for 16 compounds.

One assay deals with T1, human JAK1 (Homo sapiens, UniProt P23458).
T1 construct: catalytic domain, amino acids 866-1154; catalog number PV4774; purchased Invitrogen PV4774
The assay can be described thus: JAK1 inhibition assay (polyGT substrate / Ulight-JAK1 peptide). The note with it: recombinant human JAK1 catalytic domain; polyGT or Ulight-JAK1 peptide assay. Format: biochemical. An outline of the steps:
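Signal scaled between vehicle and 10 μM staurosporine. Radiometric polyGT reactions ran 45 min at 30 °C, counted after phosphoric-acid stop. Ulight peptide reactions ran 60 min at room temperature, fluorescence read after adding Eu-PT66 detection mix with EDTA.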

The subject of the next assay is BA/F3 cell line. The assay is described as follows: BA/F3 viability assay. The note with it: Mus musculus, BaF3, 48 h, read-out: BA/F3 IC50.
For a further assay, the target named is T2, human JAK3 (Homo sapiens, UniProt P52333).
T2 construct: catalytic domain (amino acids 781-1124; catalog number PV3855); purchased Invitrogen PV3855
T2 sequence (P52333 781-1124): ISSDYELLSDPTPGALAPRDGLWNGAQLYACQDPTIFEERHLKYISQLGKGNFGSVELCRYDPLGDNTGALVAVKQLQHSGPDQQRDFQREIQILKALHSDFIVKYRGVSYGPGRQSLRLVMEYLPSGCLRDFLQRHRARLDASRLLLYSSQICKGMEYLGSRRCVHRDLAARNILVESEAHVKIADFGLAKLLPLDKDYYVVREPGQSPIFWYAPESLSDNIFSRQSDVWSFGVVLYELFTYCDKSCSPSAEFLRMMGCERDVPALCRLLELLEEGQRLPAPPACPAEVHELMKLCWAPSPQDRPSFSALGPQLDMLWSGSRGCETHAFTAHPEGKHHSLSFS
The assay can be described thus: JAK3 inhibition assay. The class given is biochemical. The note with it: recombinant human JAK3 catalytic domain; polyGT substrate. An outline of the steps: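 Radiometric kinase assay: 0.5 ng JAK3 with 2.5 μg polyGT in Tris pH 7.5/MgCl2 buffer, 1 μM ATP plus 0.25 μCi 33P-γ-ATP, 1% DMSO, 45 min at 30 °C, stopped with phosphoric acid.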

Assay [1] has as its system pSTAT1(2)-luciferase reporter in HeLa cells triggered with human OSM. The assay can be described thus: JAK-STAT signalling assay. The class given is cell-based. Conditions: HeLa cells, pSTAT1(2)-luciferase reporter, human OSM 33 ng/mL, read-out: JAK-STAT IC50. An outline of the steps:
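Compound added 60 min before 33 ng/mL (final) human OSM; after overnight stimulation at 37 °C, luciferase signal from a transiently transfected pSTAT1(2) reporter in HeLa cells was read, with LacZ as internal control. EC50 derived from percent-inhibition dose-response curves.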
(In general: A reporter such as luciferase makes a cellular process visible.)

Another assay concerns the target T3, human TYK2 (Homo sapiens, UniProt P29597).
T3 construct: catalytic domain (amino acids 871-1187; catalog number 08-147); purchased Carna Biosciences 08-147
T3 sequence (P29597 871-1187): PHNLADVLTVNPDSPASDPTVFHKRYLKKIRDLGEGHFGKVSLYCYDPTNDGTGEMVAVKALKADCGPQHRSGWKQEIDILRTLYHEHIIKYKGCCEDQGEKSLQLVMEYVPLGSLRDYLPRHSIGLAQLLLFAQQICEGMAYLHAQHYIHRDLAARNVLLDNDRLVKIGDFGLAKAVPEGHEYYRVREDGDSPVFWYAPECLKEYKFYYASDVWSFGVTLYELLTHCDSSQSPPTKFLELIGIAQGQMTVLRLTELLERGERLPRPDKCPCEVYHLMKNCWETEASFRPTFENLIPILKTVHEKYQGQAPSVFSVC
The assay can be described thus: TYK2 inhibition assay. The note with it: recombinant human TYK2 catalytic domain, polyGT substrate. The class given is biochemical. An outline of the steps: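 Radiometric kinase reaction run 90 min at 30 °C, stopped with phosphoric acid, washed and scintillation-counted.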

The test system of the next assay is CTLL-2 cell line. The assay is described as follows: CTLL2 viability assay. Conditions: Mus musculus, IL-2 dependent CTLL2 viability, 24 h, ATP-lite. The class given is cell-based. An excerpt: The protocol describes the methods to analyse the activity of compounds on their ability to sustain the IL2-dependent viability of CTLL2.
Final DMSO concentration was 0.1%.

For a further assay, the target named is T4, human JAK2 (Homo sapiens, UniProt O60674).
T4 construct: catalytic domain (amino acids 808-1132; catalog number PV4210); GST; purchased Invitrogen PV4210
T4 sequence (O60674 808-1132): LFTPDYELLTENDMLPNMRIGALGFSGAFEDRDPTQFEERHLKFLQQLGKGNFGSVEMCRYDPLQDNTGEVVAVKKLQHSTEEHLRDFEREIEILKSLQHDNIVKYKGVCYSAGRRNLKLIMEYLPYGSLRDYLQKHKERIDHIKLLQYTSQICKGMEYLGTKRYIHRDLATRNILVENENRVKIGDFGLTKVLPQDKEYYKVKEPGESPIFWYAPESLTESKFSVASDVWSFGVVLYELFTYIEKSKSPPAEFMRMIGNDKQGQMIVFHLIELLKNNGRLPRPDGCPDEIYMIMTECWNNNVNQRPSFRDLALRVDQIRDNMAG
The assay can be described thus: JAK2 inhibition assay (polyGT substrate / Ulight-JAK1 peptide). Format: biochemical. Conditions: recombinant human JAK2 catalytic domain; polyGT or Ulight-JAK1 peptide assay. An outline of the steps: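 Two JAK2 formats: a ^33P-ATP polyGT assay (1 μM cold ATP, 90 min, 30° C., cpm read-out) and a Ulight-JAK1 peptide assay read by Europium-anti-phosphotyrosine fluorescence after 60 min at room temperature.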

Read-outs that look alike come from different tables or passages of the source. Bounds are passed on as bounds.

T1 sequence (P23458 866-1154): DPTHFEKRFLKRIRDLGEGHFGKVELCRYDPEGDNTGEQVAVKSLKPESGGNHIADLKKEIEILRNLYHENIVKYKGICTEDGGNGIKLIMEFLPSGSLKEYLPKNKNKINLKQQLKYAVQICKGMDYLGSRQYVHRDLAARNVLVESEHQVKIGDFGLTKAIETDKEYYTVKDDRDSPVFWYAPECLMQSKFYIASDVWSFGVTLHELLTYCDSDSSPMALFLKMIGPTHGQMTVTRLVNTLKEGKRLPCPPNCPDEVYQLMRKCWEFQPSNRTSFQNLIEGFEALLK

In the case of `CCc1cc(-c2cncc(F)c2)ccc1N(C)c1cc2c(cn1)ncn2C` [Compound 133, N-(2-ethyl-4-(5-fluoropyridin-3-yl)phenyl)-N,1-dimethyl-1H-imidazo[4,5-c]pyridin-6-amine], the IC50 at human JAK1 is 0.01 to 100 nM; in the assay on BA/F3 cell line, above 5000 nM; on human JAK3, 501 to 1000 nM; in assay [1] (Homo sapiens, HeLa), 1 to 500 nM; at human TYK2, 101 to 500 nM.
On to `CCc1cc(C(N)=O)ccc1N(C)c1cc2c(cn1)ncn2C` [Compound 137, 3-Ethyl-4-(methyl(1-methyl-1H-imidazo[4,5-c]pyridin-6-yl)amino)benzamide], for which the IC50 in assay [1] (Homo sapiens, HeLa) is 501 to 1000 nM; with CTLL-2 cell line, above 1000 nM.
On to `CCc1cc(C2=CCN(C(=O)C(C)O)CC2)ccc1N(C)c1cc2c(cn1)ncn2C` (stereo not drawn) [Compound 201, 1-(4-(3-ethyl-4-(methyl(1-methyl-1H-imidazo[4,5-c]pyridin-6-yl)amino)phenyl)-5,6-dihydropyridin-1(2H)-yl)-2-hydroxypropan-1-one], for which the IC50 is 0.01 to 100 nM on human JAK1; 101 to 500 nM on human JAK3; 1 to 500 nM in assay [1] (Homo sapiens, HeLa); 501 to 1000 nM in the assay on CTLL-2 cell line; 0.01 to 100 nM on human TYK2.
Turning to `CCc1cc(C2CCN(C(=O)C(F)F)CC2)ccc1N(C)c1cc2c(cn1)ncn2C` [Compound 225, 1-(4-(3-ethyl-4-(methyl(1-methyl-1H-imidazo[4,5-c]pyridin-6-yl)amino)phenyl)piperidin-1-yl)-2,2-difluoroethanone], the IC50 fell in the range of 0.01 to 100 nM on human JAK1; 1000 to 5000 nM in the assay on BA/F3 cell line; 0.01 to 100 nM at human JAK3; 501 to 1000 nM in assay [1]; 0.01 to 100 nM on human TYK2.
Take `CCc1cc(CN(C)S(C)(=O)=O)ccc1N(C)c1cc2c(cn1)ncn2C` [Compound 261, N-(3-ethyl-4-(methyl(1-methyl-1H-imidazo[4,5-c]pyridin-6-yl)amino)benzyl)-N-methylmethanesulfonamide]: the IC50 was 0.01 to 100 nM on human JAK1; 1000 to 5000 nM with BA/F3 cell line; 0.01 to 100 nM on human JAK3; 501 to 1000 nM in the assay on CTLL-2 cell line; 0.01 to 100 nM on human TYK2.
As to `CN(c1cc2c(cn1)ncn2C)c1ccc(CNS(C)(=O)=O)cc1F` [Compound 269, N-(3-Fluoro-4-(methyl(1-methyl-1H-imidazo[4,5-c]pyridin-6-yl)amino)benzyl)methanesulfonamide], the IC50 at human JAK1 is 0.01 to 100 nM; in the assay on BA/F3 cell line it was above 5000 nM; on human JAK3, 101 to 500 nM; in assay [1] (Homo sapiens, HeLa), 501 to 1000 nM; at human TYK2 it was 0.01 to 100 nM.
Take `CCn1nc(-c2ccc(Cl)cc2)cc1N(C)c1cc2c(cn1)ncn2C` [Compound 307, [5-(4-Chloro-phenyl)-2-ethyl-2H-pyrazol-3-yl]-methyl-(1-methyl-1H-imidazo[4,5-c]pyridin-6-yl)-amine]: the IC50 at human JAK1 is 0.01 to 100 nM; with BA/F3 cell line it was above 5000 nM; at human JAK3, 101 to 500 nM; with CTLL-2 cell line, above 1000 nM; at human JAK2 it was 101 to 500 nM; at human TYK2 it was 101 to 500 nM.
Consider `CCc1cc(C2CN(C(=O)C3CCOCC3)C2)ncc1N(C)c1cc2c(cn1)ncn2C` [Compound 337, (3-{4-Ethyl-5-[methyl-(1-methyl-1H-imidazo[4,5-c]pyridin-6-yl)-amino]-pyridin-2-yl}-azetidin-1-yl)-(tetrahydro-pyran-4-yl)-methanone], for which the IC50 at human JAK1 is 501 to 1000 nM; with BA/F3 cell line it was above 5000 nM; at human JAK3, above 1000 nM; in the assay with CTLL-2 cell line it was above 1000 nM; on human JAK2, above 1000 nM; at human TYK2, above 1000 nM.
With `CCc1cc(C2CN(CCC(F)(F)F)C2)ncc1N(C)c1cc2c(cn1)ncn2C` [Compound 341, {4-Ethyl-6-[1-(3,3,3-trifluoro-propyl)-azetidin-3-yl]-pyridin-3-yl}-methyl-(1-methyl-1H-imidazo[4,5-c]pyridin-6-yl)-amine], the IC50 was 101 to 500 nM at human JAK1; above 5000 nM in the assay with BA/F3 cell line; above 1000 nM at human JAK3; above 1000 nM in the assay with CTLL-2 cell line; above 1000 nM on human JAK2; above 1000 nM on human TYK2.
For the compound `CCc1cc(C2CN(CC(F)(F)F)C2)ncc1N(C)c1cc2c(cn1)ncn2C` [Compound 342, {4-Ethyl-6-[1-(2,2,2-trifluoro-ethyl)-azetidin-3-yl]-pyridin-3-yl}-methyl-(1-methyl-1H-imidazo[4,5-c]pyridin-6-yl)-amine], the IC50 is 101 to 500 nM at human JAK1; above 5000 nM in the assay with BA/F3 cell line; above 1000 nM on human JAK3; above 1000 nM in the assay on CTLL-2 cell line; above 1000 nM at human JAK2; above 1000 nM at human TYK2.
`CCc1cc(CN(CC#N)S(C)(=O)=O)ncc1N(C)c1cc2c(cn1)ncn2C` [Compound 344, N-Cyanomethyl-N-{4-ethyl-5-[methyl-(1-methyl-1H-imidazo[4,5-c]pyridin-6-yl)-amino]-pyridin-2-ylmethyl}-methanesulfonamide]: the IC50 at human JAK1 was 0.01 to 100 nM; in the assay with BA/F3 cell line, above 5000 nM; on human JAK3, 0.01 to 100 nM; in the assay with CTLL-2 cell line, above 1000 nM; at human JAK2, 101 to 500 nM; at human TYK2 it was 101 to 500 nM.
For `CCc1cc(C2CN(C(=O)C(F)F)C2)ccc1N(C)c1cc2c(cn1)ncn2C` [Compound 346, 1-(3-{3-Ethyl-4-[methyl-(1-methyl-1H-imidazo[4,5-c]pyridin-6-yl)-amino]-phenyl)-azetidin-1-yl)-2,2-difluoro-ethanone], the IC50 at human JAK1 is 0.01 to 100 nM; in the assay with BA/F3 cell line, above 5000 nM; on human JAK3, 101 to 500 nM; in the assay on CTLL-2 cell line, above 1000 nM; on human JAK2, 0.01 to 100 nM; on human TYK2 it was 0.01 to 100 nM.
On to `CCc1cc(C2CN(C(=O)C(F)(F)F)C2)ccc1N(C)c1cc2c(cn1)ncn2C` [Compound 347, 1-(3-{3-Ethyl-4-[methyl-(1-methyl-1H-imidazo[4,5-c]pyridin-6-yl)-amino]-phenyl}-azetidin-1-yl)-2,2,2-trifluoro-ethanone], for which the IC50 on human JAK1 is 0.01 to 100 nM; with BA/F3 cell line, above 5000 nM; on human JAK3, 101 to 500 nM; in the assay with CTLL-2 cell line, above 1000 nM; at human JAK2, 101 to 500 nM; at human TYK2, 101 to 500 nM.
With `CCc1cc(CN2CC(F)(F)C2)ccc1N(C)c1cc2c(cn1)ncn2C` [Compound 378, [4-(3,3-Difluoro-azetidin-1-ylmethyl)-2-ethyl-phenyl]-methyl-(1-methyl-1H-imidazo[4,5-c]pyridin-6-yl)-amine], the results for the IC50 with BA/F3 cell line and in the assay on CTLL-2 cell line were above 5000 nM and above 1000 nM, respectively.
With `CCc1cc(C(C#N)N2CCC(S(C)(=O)=O)CC2)ccc1N(C)c1cc2c(cn1)ncn2C` (stereo not drawn) [Compound 452, {3-Ethyl-4-[methyl-(1-methyl-1H-imidazo[4,5-c]pyridin-6-yl)-amino]-phenyl}-(4-methanesulfonyl-piperidin-1-yl)-acetonitrile], the IC50 lay in the range of 0.01 to 100 nM at human JAK1; 0.01 to 100 nM on human JAK3; 501 to 1000 nM with CTLL-2 cell line; 0.01 to 100 nM at human JAK2; 0.01 to 100 nM at human TYK2.
Regarding `CCOC(=O)C1CN(C(C#N)c2ccc(N(C)c3cc4c(cn3)ncn4C)c(CC)c2)C1` (stereo not drawn) [Compound 453, 1-(Cyano-{3-ethyl-4-[methyl-(1-methyl-1H-imidazo[4,5-c]pyridin-6-yl)-amino]-phenyl}-methyl)-azetidine-3-carboxylic acid ethyl ester], the IC50 was 0.01 to 100 nM at human JAK1; 501 to 1000 nM at human JAK3; above 1000 nM with CTLL-2 cell line; 0.01 to 100 nM on human JAK2; 0.01 to 100 nM at human TYK2.
